Experiments:
[1] = RP, Waters ACQUITY UPLC BEH C18, 100 × 1 mm, 1.7 µm, 50 °C, 0.3 mL/min, estimated dead time 0.17 min; A: water + 10 mM ammonium bicarbonate; B: 10% water + 90% methanol + 10 mM ammonium bicarbonate; gradient (min/%B) 0/0 15/100 21/100 22/0 30/0; settings: stereoisomer not certain
[2] = RP, Waters ACQUITY UPLC BEH C18, 100 × 1 mm, 1.7 µm, 50 °C, 0.3 mL/min, estimated dead time 0.17 min; A: water + 0.1% formic acid + 20 mM ammonium formate; B: methanol + 0.1% formic acid + 20 mM ammonium formate; gradient (min/%B) 0/0 15/100 21/100 22/0 30/0; settings: stereoisomer not certain

Compound	LC retention time [1]	LC retention time [2]
COCN(COC)c1nc(N(COC)COC)nc(N(COC)COC)n1 [Hexa(methoxymethyl)melamine]	12.9 min	12.6 min
COC(=O)C(c1ccccc1Cl)N1CCc2sccc2C1 (centres undefined) [Clopidogrel]	16.5 min	15.4 min
CCCCOC(=O)COC(=O)c1ccccc1C(=O)OCCCC [2-Butoxy-oxoethylbutylphthalate]	16.6 min	16.2 min
O=c1c(O)c(-c2ccc(O)cc2)oc2cc(O)cc(O)c12 [Kaempferol]	10.1 min	12.3 min
CCC(C)c1ccccc1OC(=O)NC (centres undefined) [Fenobucarb]	15 min	
CCC(CO)NCCNC(CC)CO (centres undefined) [Ethambutol]	8.12 min	
COCC(C)N(C(=O)CCl)c1c(C)csc1C (centres undefined) [Dimethenamid]	14.4 min	
COC(=O)c1ccc(C(F)(F)F)nc1S(=O)(=O)NC(=O)Nc1nc(OC)cc(OC)n1 [Flupyrsulfuron-methyl]	10.4 min	
CCCCOC(=O)C=Cc1ccccc1 [Butyl cinnamate]	14 min	
CCCN(CCC)C(=O)SCc1ccccc1 [Prosulfocarb]	16.9 min	
Oc1ccc(C=Cc2cc(O)cc(O)c2)cc1 [Resveratrol]	15.4 min	
CCC(C)(c1ccc(O)cc1)c1ccc(O)cc1 [Bisphenol B]	14.3 min	
CSc1nc(N)nc(NC(C)(C)C)n1 [Irgarol-Metabolit 1 (Terbutryn-desethyl)]	13.4 min	
CCN1CCN(C(=O)NC(C(=O)NC2C(=O)N3C(C(=O)O)=C(CSc4nnnn4C)CSC23)c2ccc(O)cc2)C(=O)C1=O (centres undefined) [Cefoperazone]	8.34 min	
Oc1ccc(Cl)cc1Cl [2,4-Dichlorophenol]	12.3 min	
Nc1ccccc1Cl [2-Chloroaniline]	10.6 min	
CC1=C(C(=O)O)N2C(=O)C(NC(=O)C(N)c3ccccc3)C2SC1 (centres undefined) [Cefalexin]	7.52 min	
CCCCCC=CCC=CCCCCCCCC(=O)O [Linoleic acid]	17.6 min	
CC(=O)Nc1ccc(O)cc1 [Acetaminophen]	5.35 min	
CC(=O)N(C)c1ccccc1 [N-Methylacetanilide]	11.2 min	
CCON=C(OC(=O)c1ccccc1)c1c(OC)ccc(Cl)c1OC [Benzoximate]	16.3 min	
O=C1NCCN1Cc1ccc(Cl)nc1 [Imidacloprid-urea]	8.68 min	
CCNc1nc(N)nc(Cl)n1 [Desisopropylatrazine]	8.17 min	

Compound	LC retention time [1]	LC retention time [2]
CC(C)(C)C(O)C(=Cc1ccc(Cl)cc1Cl)n1cncn1 (centres undefined) [Diniconazole]	16.5 min	
C[N+](C)(C)C[C@H](O)CC(=O)[O-] [L-Carnitin]	9.28 min	
C=CC1=C(C(=O)O)N2C(=O)C(NC(=O)C(=NOCC(=O)O)c3csc(N)n3)C2SC1 (centres undefined) [Cefixim]	5.67 min	
CC1C(c2ccc(Cl)cc2)SC(=O)N1C(=O)NC1CCCCC1 (centres undefined) [Hexythiazox]	17.6 min	
Oc1ccc(C(c2ccccc2)(c2ccccc2)c2ccc(O)cc2)cc1 [Bisphenol BP]	15.9 min	
O=C1CC=Cc2ncc3ccccc3c21 [Phenanthridinon]	13.2 min	
CC12CCC3c4ccc(O)cc4CCC3C1CC(O)C2O (centres undefined) [Estriol]	11.4 min	
CNC(=O)Oc1cccc2c1OC(C)(C)O2 [Bendiocarb]	11.9 min	
c1ccc2scnc2c1 [Benzothiazol]	11.1 min	
CNCC(c1ccc(O)cc1)C1(O)CCCCC1 (racemic) [rac N,O-Didesmethyl Venlafaxine]	15.4 min	
C=CC1C(OC2OC(CO)C(O)C(O)C2O)OC=C2C(=O)OCCC21 (centres undefined) [Sweroside]	8.69 min	
CCNc1nc(NC(C)C)nc(OC)n1 [Atraton]	12.4 min	
FC(F)C(F)(F)OCC(Cn1cncn1)c1ccc(Cl)cc1Cl (centres undefined) [Tetraconazole]	15.3 min	
Nc1ccc(S(=O)(=O)Nc2ccccn2)cc1 [Sulfapyridine]	6.64 min	
Cn1sc(Cl)cc1=O [Methylchloroisothiazolinone]	6.48 min	
O=P(OCCCCl)(OCCCCl)OCCCCl [Tris(3-chloropropyl) phosphate]	14.6 min	
Cc1cc(Cl)ccc1N [4-Chloro-2-methylaniline]	12.3 min	
CC#Cc1cc(C)nc(Nc2ccccc2)n1 [Mepanipyrim]	15 min	
CNC(=O)Oc1ccccc1OC(C)C [Propoxur (baygon)]	11.9 min	
CCC1(c2cccc(O)c2)CCCCN(C)C1 (centres undefined) [Meptazinole]	14.4 min	
CC(C)NCC(O)c1ccc(NS(C)(=O)=O)cc1 (centres undefined) [Sotalol]	7.74 min	
CSc1nc(NC2CC2)nc(NC(C)(C)C)n1 [Irgarol]	15.4 min	
NS(=O)(=O)c1ccccc1 [Benzenesulfonamide]	12.8 min	

Compound	LC retention time [1]	LC retention time [2]
CN(CCO)CCO [Methyl diethanolamine]	2.65 min	
O=c1[nH]c2c(c(=O)n1C1CCCCC1)CCC2 [Lenacil]	13.1 min	
Cc1nnc(-c2ccccc2)c(=O)n1N [Metamitron]	9 min	
CCN(CC)CC(=O)Nc1c(C)cccc1C [Lidocaine]	14.9 min	
CCC(CC)Nc1c([N+](=O)[O-])cc(C)c(C)c1[N+](=O)[O-] [Pendimethalin]	17.5 min	
CCNc1nc(NCC)nc(OC)n1 [Simeton]	11.6 min	
CC1(C)CC(=O)CC(C)(C)N1 [2,2,6,6-Tetramethyl-4 piperidone]	7.87 min	
Cc1cc(C)nc(NS(=O)(=O)c2ccc(N)cc2)n1 [Sulfamethazine]	7.4 min	
CN1C(=O)CN=C(c2ccccc2)c2cc(Cl)ccc21 [Diazepam]	14.6 min	
CCN(CC)C(=O)C(C)Oc1cccc2ccccc12 (centres undefined) [Napropamide]	15.1 min	
CC(Oc1c(Cl)cc(Cl)cc1Cl)C(=O)O (centres undefined) [2,4,6-Fenoprop]	2 min	
CNC(=O)Oc1cc(C)cc(C(C)C)c1 [Promecarb]	15 min	
C#CC(C)(C)NC(=O)c1cc(Cl)cc(Cl)c1 [Propyzamide]	14.6 min	
CC(COc1ccc(Oc2ccccc2)cc1)Oc1ccccn1 (centres undefined) [Pyriproxyfen]	17.4 min	
N#Cc1c[nH]cc1-c1cccc2c1OC(F)(F)O2 [Fludioxonil]	14.4 min	
OCCc1ccccn1 [2-(2-Pyridyl)ethanol]	6.8 min	
COC(=O)C(C)N(C(=O)Cc1ccccc1)c1c(C)cccc1C (centres undefined) [Benalaxyl]	16 min	
FC(F)(F)c1cccc(N2CCNCC2)c1 [1-(3-Trifluoromethylphenyl)-piperazine]	10.6 min	
CSc1nnc(C(C)(C)C)c(=O)[nH]1 [Metribuzin-desamino]	11.6 min	
CNCC(O)c1ccc(O)c(O)c1 (centres undefined) [Epinephrine]	13.9 min	
NC12CC3CC(CC(C3)C1)C2 [Amantadine]	10.5 min	
Cc1nnc(NS(=O)(=O)c2ccc(N)cc2)s1 [Sulfamethizol]	5.94 min	
CN(C)CCC=C1c2ccccc2CCc2ccccc21 [Amitriptyline]	17.4 min	

Compound	LC retention time [1]	LC retention time [2]
CC1COCc2cc3c(cc21)C(C)(C)C(C)C3(C)C (centres undefined) [Galaxolide]	18.2 min	
CCOc1nc2cccc(C(=O)O)c2n1Cc1ccc(-c2ccccc2-c2noc(=O)[nH]2)cc1 [Azilsartan]	9.52 min	
CCN(CC)C(=O)c1cccc(C)c1 [DEET]	13.4 min	
CC(C)C(=O)OCC(C)(C)C(OC(=O)C(C)C)C(C)C (centres undefined) [2,2,4-Trimethyl-1,3-pentanediol diisobutyrate]	17.4 min	
CN(C)CCCC1(c2ccc(F)cc2)OCc2cc(C#N)ccc21 (centres undefined) [Citalopram]	14.8 min	
CCNc1nc(NC(C)(C)C)nc(OC)n1 [Terbumeton]	14.3 min	
C#CC1(O)CCC2C3CCc4cc(O)ccc4C3CCC21C (stereo not drawn) [17-alpha-Ethinylestradiol]	14.3 min	
Nc1ccc(Cl)cc1 [4-Chloroaniline]	10.6 min	
CNC(=O)Oc1cc(C)c(SC)c(C)c1 [Methiocarb]	14.3 min	
COC(=O)Nc1cccc(OC(=O)Nc2cccc(C)c2)c1 [Phenmedipham]	13.6 min	
CC(=O)c1cc2c(cc1C)C(C)(C)C(C)CC2(C)C (centres undefined) [Tonalide]	18.2 min	
CCCCOCCOCCOCc1cc2c(cc1CCC)OCO2 [Piperonyl butoxide]	15.3 min	
CN(C)C(=O)Nc1ccc(Cl)cc1 [Monuron]	11.3 min	
CCNc1nc(Cl)nc(NC(C)(C)C)n1 [Terbuthylazine]	14.4 min	
CCNc1nc(Cl)nc(NC(C)C)n1 [Atrazine]	13.1 min	
Cn1c(=O)c2[nH]cnc2n(C)c1=O [Theophyllin]	6.11 min	
CC1(C)CC(O)CC(C)(C)N1 [2,2,6,6-Tetramethylpiperidin-4-ol]	4.21 min	
NC1=NCCN1Cc1ccc(Cl)nc1 [Imidacloprid-guanidine]	6.72 min	
CC(C)N(Cc1ccccc1)C(=O)C(C)(C)C [Tebutam]	14.3 min	
On1ccccc1=S [Pyrithione]	9.52 min	
COC(=O)c1ccccc1S(N)(=O)=O [Methyl 2-(aminosulfonyl)benzoate]	8.1 min	
